Patent US20260317344A1, “EGFR INHIBITORS FOR TREATING DISEASE” (BLOSSOMHILL THERAPEUTICS, INC., priority 2023, published 2026)
Where two headings read alike, the source gives them in different places.

Legend:
EGFR (D770_N771insNPG) = EGFR (D770_N771insNPG) (Homo sapiens, UniProt P00533, INS770NPG); assay: HotSpot radiometric kinase assay, inhibition of EGFR (D770_N771insNPG) mutant; format: biochemical; conditions: 33P ATP, room temperature, 120 m
Method: (§1) Biochemical Assays for inhibition of wild-type and mutant EGFRs
(§2) Briefly, specific kinase/substrate pairs along with required cofactors were prepared in reaction buffer; 20 mM HEPES pH 7.5, 10 mM […], 1 mM EGTA, 0.02% Brij35, 0.02 mg/ml BSA, 0.1 mM Na3VO4, 2 mM DTT, 1% DMSO. Compounds were delivered into the reaction, followed ~20 minutes later by addition of a mixture of ATP (Sigma, St. Louis MO) and ^33P ATP (Perkin Elmer, Waltham MA) to a final concentration of […]. Reactions were carried out at room temperature for 120 m, followed by spotting of the reactions onto P81 ion exchange filter paper (Whatman Inc., Piscataway, NJ). Unbound phosphate was removed by extensive washing of filters in 0.75% phosphoric acid. […] IC50 values and curve fits were obtained using Prism (GraphPad Software).

EGFR (D746-750) = EGFR (D746-750) (Homo sapiens, UniProt P00533, DEL746-750); assay: HotSpot radiometric kinase assay, inhibition of EGFR 746-750 mutant; format: biochemical; conditions: 33P ATP, room temperature, 120 m
Sequence of EGFR (D746-750) (P00533 with tags, fused parts or gaps DEL746-750): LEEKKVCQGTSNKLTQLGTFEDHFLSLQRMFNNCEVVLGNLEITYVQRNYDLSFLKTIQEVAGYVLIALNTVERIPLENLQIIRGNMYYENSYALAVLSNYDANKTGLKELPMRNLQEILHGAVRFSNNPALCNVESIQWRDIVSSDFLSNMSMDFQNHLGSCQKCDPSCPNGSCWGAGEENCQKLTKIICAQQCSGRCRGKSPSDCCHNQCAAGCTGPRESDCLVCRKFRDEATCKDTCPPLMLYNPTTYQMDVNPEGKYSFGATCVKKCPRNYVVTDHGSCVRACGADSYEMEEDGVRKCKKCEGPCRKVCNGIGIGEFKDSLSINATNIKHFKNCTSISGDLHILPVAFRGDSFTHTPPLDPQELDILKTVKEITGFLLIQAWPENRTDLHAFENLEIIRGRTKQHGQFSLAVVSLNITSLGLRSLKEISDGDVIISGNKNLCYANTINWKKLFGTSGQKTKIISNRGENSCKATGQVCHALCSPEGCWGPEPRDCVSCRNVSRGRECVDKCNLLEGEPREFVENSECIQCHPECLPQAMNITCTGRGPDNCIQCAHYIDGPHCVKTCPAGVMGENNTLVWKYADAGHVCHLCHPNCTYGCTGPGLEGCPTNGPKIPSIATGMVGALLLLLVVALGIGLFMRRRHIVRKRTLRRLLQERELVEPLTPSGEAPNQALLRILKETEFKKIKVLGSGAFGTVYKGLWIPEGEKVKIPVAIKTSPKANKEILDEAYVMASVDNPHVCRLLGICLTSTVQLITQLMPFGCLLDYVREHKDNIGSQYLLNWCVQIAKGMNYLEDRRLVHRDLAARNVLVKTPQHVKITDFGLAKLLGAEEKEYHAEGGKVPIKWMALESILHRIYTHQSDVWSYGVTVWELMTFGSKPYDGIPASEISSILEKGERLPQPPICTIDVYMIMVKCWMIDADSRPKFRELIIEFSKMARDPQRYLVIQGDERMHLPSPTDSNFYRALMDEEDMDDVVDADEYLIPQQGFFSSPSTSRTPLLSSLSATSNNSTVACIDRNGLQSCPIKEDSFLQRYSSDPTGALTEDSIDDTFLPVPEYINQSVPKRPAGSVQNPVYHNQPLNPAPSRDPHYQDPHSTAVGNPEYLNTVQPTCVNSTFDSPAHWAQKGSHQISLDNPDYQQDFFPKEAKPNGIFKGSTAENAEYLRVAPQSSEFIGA
Method: as §1, §2

EGFR (L858R/T790M/C797S) = EGFR (L858R/T790M/C797S) (Homo sapiens, UniProt P00533, C797S/L858R/T790M); assay: HotSpot radiometric kinase assay, inhibition of EGFR L858R/T790M/C797S mutant; format: biochemical; conditions: 33P ATP, room temperature, 120 m
Method: as §1, §2

EGFR (D746-750/C797S) = EGFR (D746-750/C797S) (Homo sapiens, UniProt P00533, C797S/DEL746-750); assay: HotSpot radiometric kinase assay, inhibition of EGFR 746-750/C797S mutant; format: biochemical; conditions: 33P ATP, room temperature, 120 m
Method: as §1, §2

HCC827 cells = assay: 5-Day CellTiter Glo (CTG) cell proliferation assay, HCC827; format: cell-based; conditions: Homo sapiens, read-out: HCC827 IC50
Method: (§3) 5-Day CellTiter Glo (CTG) Cell Proliferation Assays (PC9, H1975, H827)
(§4) Cell proliferation assays were carried out in NSCLC cells with EGFR activation mutations. Both PC-9 cells and HCC827 cells (purchased from DSMZ) carry a Glu746-Ala750 deletion (d746-750) mutation in exon 19 of the EGFR gene and NCI-H1975 cells carry both L858R activation mutation and T790M gatekeeper mutation in the EGFR gene. One thousand PC-9, NCI-H1975 or HCC827 cells/100 μL per well were seeded in 96-well black plate with transparent bottom and then treated with indicated compounds in a 9-dose dilution series dispensed using TECAN d300e liquid dispenser. Cells were incubated with compounds for 120 hours at 37° C. and 5% CO2. Cell proliferation was measured using CellTiter-Glo 2.0 luciferase-based ATP detection assay (Promega, Madison, WI) at […] per well following the manufacturer's protocol. Plates were then read on a TECAN Sparks multimode microplate reader. Data was analyzed using GraphPad Prism 9 (GraphPad Software, San Diego, CA) to obtain IC50 values.

[1] = target: T1, pEGFR, A431 cells (wildtype EGFR) (Homo sapiens, UniProt P00533); assay: Cellular EGFR phosphorylation assay (LANCE Ultra TR-FRET) in A431 cells; format: cell-based; conditions: 4 hours at 37° C., 40 ng/mL EGF for the final 10 minutes, read-out: A431 pEGFR IC50
T1 construct: pEGFR (Tyr1068) TR-FRET
T1 sequence (P00533 25-1210): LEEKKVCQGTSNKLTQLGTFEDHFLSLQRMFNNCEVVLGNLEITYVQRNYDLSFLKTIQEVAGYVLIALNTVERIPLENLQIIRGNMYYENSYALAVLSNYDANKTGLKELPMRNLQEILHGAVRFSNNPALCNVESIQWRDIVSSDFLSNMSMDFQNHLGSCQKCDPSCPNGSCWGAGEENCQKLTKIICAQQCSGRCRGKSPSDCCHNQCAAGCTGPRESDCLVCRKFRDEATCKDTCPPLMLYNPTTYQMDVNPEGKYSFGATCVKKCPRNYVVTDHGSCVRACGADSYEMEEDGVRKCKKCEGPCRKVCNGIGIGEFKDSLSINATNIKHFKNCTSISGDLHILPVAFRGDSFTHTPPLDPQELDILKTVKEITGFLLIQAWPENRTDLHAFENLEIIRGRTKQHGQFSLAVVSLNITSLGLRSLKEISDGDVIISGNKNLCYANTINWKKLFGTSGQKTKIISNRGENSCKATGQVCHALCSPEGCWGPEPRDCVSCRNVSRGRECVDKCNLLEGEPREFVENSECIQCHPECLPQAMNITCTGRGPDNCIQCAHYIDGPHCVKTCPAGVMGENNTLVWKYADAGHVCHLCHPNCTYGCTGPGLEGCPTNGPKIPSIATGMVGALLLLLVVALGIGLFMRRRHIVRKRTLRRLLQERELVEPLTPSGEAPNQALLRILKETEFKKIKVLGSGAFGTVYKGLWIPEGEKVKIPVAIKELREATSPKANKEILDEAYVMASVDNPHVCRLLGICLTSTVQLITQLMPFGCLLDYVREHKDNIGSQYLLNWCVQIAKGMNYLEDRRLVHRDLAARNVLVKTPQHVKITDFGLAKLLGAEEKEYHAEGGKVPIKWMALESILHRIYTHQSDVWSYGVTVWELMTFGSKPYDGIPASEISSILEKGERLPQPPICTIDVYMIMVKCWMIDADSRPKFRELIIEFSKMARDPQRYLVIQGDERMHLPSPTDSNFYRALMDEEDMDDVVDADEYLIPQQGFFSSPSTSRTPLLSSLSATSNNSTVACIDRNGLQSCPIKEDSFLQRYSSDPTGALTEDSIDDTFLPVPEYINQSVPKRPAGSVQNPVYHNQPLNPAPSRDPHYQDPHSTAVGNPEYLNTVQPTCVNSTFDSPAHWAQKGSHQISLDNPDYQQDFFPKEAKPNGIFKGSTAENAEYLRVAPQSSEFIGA
Method: (§5) Cellular EGFR Phosphorylation Assays
(§6) EGFR phosphorylation assays were conducted in NSCLC cells with EGFR activation mutations. PC-9 cells (purchased from Aldrich-Sigma) carry a Glu746-Ala750 deletion (d746-750) mutation in exon 19 of the EGFR gene and NCI-H1975 cells (purchased from ATCC) carry both L858R activation mutation and T790M gatekeeper mutation in the EGFR gene. A431 cells (purchased from ATCC) with amplification of wildtype EGFR, derived from epidermoid carcinoma, were used to measure the activity against wildtype EGFR. All cells were seeded in 96-well plates. For PC-9 and NCI-H1975 cells, 50 thousand cells were seeded per well. For A431 cells, 30 thousand cells were seeded per well. The next day, cells were exposed to compound for 4 hours at 37° C. and 5% CO2. Compounds were diluted in DMSO and added to cells in a 9-dose, 3-fold dilution, titration curve using TECAN d300e liquid dispenser. For A431 cells, 40 ng/mL of EGF was added to the media for the final 10 minutes of incubation. EGFR phosphorylation was measured using phospho-EGFR (Try1068) LANCE Ultra TR-FRET Detection Kit (TRF4015M) from PerkinElmer according to manufacturer's instructions. In brief, cells were lysed with 40 μL of lysis buffer plus 1× Halt protease and phosphatase inhibitor cocktail (Thermo 78441) and by incubation at room temperature for 1 h on a microplate shaker (350 rpm). 15 μ L of cell lysate was transferred to 384-well white plate and 5 μL of Europium- and ULight-labeled antibodies diluted in 1× detection buffer was added to each well. After 4-6 hours of incubation at room temperature, plates were then read on a TECAN Sparks multimode microplate reader. Data was analyzed using GraphPad Prism 9 (GraphPad Software, San Diego, CA) to obtain IC50 values.

NCI-H1975 cells = assay: 5-Day CellTiter Glo (CTG) cell proliferation assay, NCI-H1975; format: cell-based; conditions: Homo sapiens, read-out: H1975 IC50
Method: as §3, §4

PC-9 cells = assay: 5-Day CellTiter Glo (CTG) cell proliferation assay, PC-9; format: cell-based; conditions: Homo sapiens, read-out: PC-9 IC50
Method: as §3, §4

[2] = target: T2, pEGFR, PC-9 cells (d746-750 EGFR) (Homo sapiens, UniProt P00533, DEL746-750); assay: Cellular EGFR phosphorylation assay (LANCE Ultra TR-FRET) in PC-9 cells; format: cell-based; conditions: 4 hours at 37° C., read-out: PC-9 pEGFR IC50
T2 construct: pEGFR (Tyr1068) TR-FRET
T2 sequence (P00533 with tags, fused parts or gaps DEL746-750): as the sequence (P00533 with tags, fused parts or gaps DEL746-750) above
Method: as §5, §6

[3] = target: T3, pEGFR, NCI-H1975 cells (L858R/T790M EGFR) (Homo sapiens, UniProt P00533, L858R/T790M); assay: Cellular EGFR phosphorylation assay (LANCE Ultra TR-FRET) in NCI-H1975 cells; format: cell-based; conditions: 4 hours at 37° C., read-out: H1975 pEGFR IC50
T3 construct: pEGFR (Tyr1068) TR-FRET
Method: as §5, §6

[4] = system: BaF3 cells with engineered EGFR L858R/T790M/C797S; assay: 3-Day CellTiter Glo (CTG) cell proliferation assay, BaF3 EGFR L858R/T790M/C797S; format: cell-based; conditions: Mus musculus, 3-day CTG proliferation, 72 hours
Method: 3-DAY CellTiter Glo (CTG) Cell Proliferation Assays (BaF3 Cell Lines)
Cell proliferation assays were carried out in BaF3 cells engineered with EGFR mutations. BaF3 cells with engineered EGFR L858R/T790M/C797S, EGFR L858R/C797S, or EGFR d746-750/T790M transgene, one thousand cells/50 μL per well were seeded in white 384-well plate, followed by treatment with indicated compounds in a 9-dose dilution series using TECAN d300e liquid dispenser. Cells were incubated with compounds for 72 hours at 37° C. and 5% CO2. Cell proliferation was measured using CellTiter-Gbo 2.0 luciferase-based ATP detection assay (Promega, Madison, WI) at 18 μL per well following the manufacturer's protocol. Plates were then read on a TECAN Sparks multimode microplate reader. Data was analyzed using GraphPad Prism 9 (GraphiPad Software, San Diego, CA) to obtain IC50 values.

[5] = HCC827 cells (d746-750 EGFR), 5-day CTG proliferation, 120 hours
[6] = NCI-H1975 cells (L858R/T790M EGFR), 5-day CTG proliferation, 120 hours
[7] = PC-9 cells (d746-750 EGFR), 5-day CTG proliferation, 120 hours

Sequence of EGFR (D770_N771insNPG) (P00533 with tags, fused parts or gaps INS770NPG limits assumed): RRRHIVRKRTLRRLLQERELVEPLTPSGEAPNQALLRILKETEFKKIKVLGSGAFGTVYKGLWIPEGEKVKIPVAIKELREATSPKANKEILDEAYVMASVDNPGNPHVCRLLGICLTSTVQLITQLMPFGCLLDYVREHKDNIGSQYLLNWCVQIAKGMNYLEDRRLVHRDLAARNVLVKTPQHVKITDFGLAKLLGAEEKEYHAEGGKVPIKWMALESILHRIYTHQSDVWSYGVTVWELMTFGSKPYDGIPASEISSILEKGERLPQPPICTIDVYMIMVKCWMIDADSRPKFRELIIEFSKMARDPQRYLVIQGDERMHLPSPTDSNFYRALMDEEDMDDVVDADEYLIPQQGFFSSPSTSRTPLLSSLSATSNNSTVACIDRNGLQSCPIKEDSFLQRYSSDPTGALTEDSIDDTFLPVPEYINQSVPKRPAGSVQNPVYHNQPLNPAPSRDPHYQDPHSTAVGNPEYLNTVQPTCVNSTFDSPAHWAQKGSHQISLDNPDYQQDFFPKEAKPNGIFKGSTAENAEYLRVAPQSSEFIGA

SMILES | IC50 (EGFR (D770_N771insNPG)) [nM] | IC50 (EGFR (D746-750)) [nM] | IC50 (EGFR (L858R/T790M/C797S)) [nM] | IC50 (EGFR (D746-750/C797S)) [nM] | IC50 (HCC827 cells; [5]) [nM] | IC50 [1] [nM] | IC50 (NCI-H1975 cells; [6]) [nM] | IC50 (PC-9 cells; [7]) [nM] | IC50 [2] [nM] | IC50 [3] [nM] | also measured
CCc1nn(CCO)c2c1/C=C/c1n[nH]c3cnc(cc13)-c1c(C)nn(C)c1O[C@H](C)CN(CC)C2 [Ex. 55, 2-[(10R,17E)-12,16-diethyl-6,8,10-trimethyl-2,8,10,11,12,13-hexahydro-14H-5,3-(azenometheno)tripyrazolo[3,4-f:3′,4′-j:4″,3″-n][1,4]oxazacyclopentadecin-14-yl]ethan-1-ol] | 1.38 | 0.25 | 0.53 | 0.72 |  |  |  |  |  |  | 
Cc1nn(C)c2c1-c1cc3c(n[nH]c3cn1)/C=C/c1c(OCC#N)nn([C@@H](C)CO)c1CN(C)CCO2 [Ex. 70, {[(17E)-14-[(2S)-1-hydroxypropan-2-yl]-6,8,12-trimethyl-2,10,11,12,13,14-hexahydro-8H-5,3-(azenometheno)tripyrazolo[3,4-f:3′,4′-j:4″,3″-n][1,4]oxazacyclopentadecin-16-yl]oxy}acetonitrile] | 0.41 | 0.16 | 0.31 | 0.69 |  |  |  |  |  |  | 
Cc1nn(C)c2c1-c1cc3c(n[nH]c3cn1)/C=C/c1c(OCC#N)nn(CCO)c1CN1CCC[C@@H]1CO2 [Ex. 43, {[(8aR,19E)-3-(2-hydroxyethyl)-11,13-dimethyl-3,4,7,8,8a,9,11,17-octahydro-6H-14,16-(azenometheno)tripyrazolo[3,4-f:3′,4′-j:4″,3″-n]pyrrolo[2,1-c][1,4]oxazacyclopentadecin-1-yl]oxy}acetonitrile] | 0.18 | 0.09 | 0.16 | 0.23 |  |  |  |  |  |  | 
Cc1nn(C)c2c1-c1cc3c(n[nH]c3c(C)n1)/C=C/c1c(OCC#N)nn([C@@H](C)CO)c1CN(C)C[C@H](C)O2 [Ex. 52] | 0.25 | 0.21 | 0.46 | 0.71 |  |  |  |  |  |  | 
Cc1nn([C@@H](C)CO)c2c1/C=C/c1n[nH]c3cnc(cc13)-c1c(C)nn(C)c1O[C@@H](C)CN(C)C2 [Ex. 46, (2S)-2-[(10S,17E)-6,8,10,12,16-pentamethyl-2,8,10,11,12,13-hexahydro-14H-5,3-(azenometheno)tripyrazolo[3,4-f:3′,4′-j:4″,3″-n][1,4]oxazacyclopentadecin-14-yl]propan-1-ol] | 0.36 | 0.15 | 0.23 | 0.4 |  |  |  |  |  |  | 
CCOc1nn([C@@H](C)CO)c2c1/C=C/c1n[nH]c3c(C)nc(cc13)-c1c(COC)nn(C)c1O[C@@H](C)CN(CC)C2 [Ex. 147, (2S)-2-[(10S,17E)-16-ethoxy-12-ethyl-6-(methoxymethyl)-8,10,20-trimethyl-2,8,10,11,12,13-hexahydro-14H-5,3-(azenometheno)tripyrazolo[3,4-f:3′,4′-j:4″,3″-n][1,4]oxazacyclopentadecin-14-yl]propan-1-ol] |  |  |  |  | 0.34 | 11.3 | 20.4 | 0.59 |  |  | 
CCN1Cc2c(c(OCC#N)nn2[C@@H](C)CO)/C=C/c2n[nH]c3c(C)nc(cc23)-c2c(C)nn(C)c2O[C@@H](C)C1 [Ex. 148, {[(10S,17E)-12-ethyl-14-[(2S)-1-hydroxypropan-2-yl]-6,8,10,20-tetramethyl-2,10,11,12,13,14-hexahydro-8H-5,3-(azenometheno)tripyrazolo[3,4-f:3′,4′-j:4″,3″-n][1,4]oxazacyclopentadecin-16-yl]oxy}acetonitrile] |  |  |  |  | 0.29 | 40.5 | 1.76 | 0.76 | 1.94 | 2.9 | 
Cc1nn(C)c2c1-c1cc3c(n[nH]c3c(C)n1)/C=C/c1c(OCC#N)nn([C@@H](C)CO)c1CN(CC(F)F)C[C@H](C)O2 [Ex. 151, {[(10S,17E)-12-(2,2-difluoroethyl)-14-[(2S)-1-hydroxypropan-2-yl]-6,8,10,20-tetramethyl-2,10,11,12,13,14-hexahydro-8H-5,3-(azenometheno)tripyrazolo[3,4-f:3′,4′-j:4″,3″-n][1,4]oxazacyclopentadecin-16-yl]oxy}acetonitrile] |  |  |  |  | 0.42 | 26.6 | 4.89 | 1.55 | 2.04 | 3.24 | 
Cc1c2c(nn1C)CN(C)CCOc1c(cnn1C)-c1cc3c(n[nH]c3cn1)/C=C/2 [Ex. 73, (17E)-8,12,15,16-tetramethyl-2,10,11,12,13,15-hexahydro-8H-5,3-(azenometheno)tripyrazolo[3,4-f:3′,4′-j:4″,3″-n][1,4]oxazacyclopentadecine] |  |  |  |  | 0.24 | 564 | 5.53 | 23.7 | 72.6 |  | IC50 [4]: 35.8 nM
[2H]C([2H])([2H])C([2H])([2H])Oc1nn([C@@H](C)CO)c2c1/C=C/c1n[nH]c3cnc(cc13)-c1c(C)nn(C)c1O[C@@H](C)CN(C)C2 [Ex. 87, (2S)-2-[(10S,17E)-16-[(^2H5)ethyloxy]-6,8,10,12-tetramethyl-2,8,10,11,12,13-hexahydro-14H-5,3-(azenometheno)tripyrazolo[3,4-f:3′,4′-j:4″,3″-n][1,4]oxazacyclopentadecin-14-yl]propan-1-ol] |  |  |  |  |  | 5.88 |  |  | 0.97 | 1.82 | IC50 (HCC827 cells; HCC827, 120 h): 0.23 nM; IC50 (NCI-H1975 cells; NCI-H1975, 120 h): 0.57 nM; IC50 (PC-9 cells; PC-9, 120 h): 0.36 nM
